Measurements from US8198307B2, “Imidazole derivatives having aryl piperidine substituent, method for preparation thereof and pharmaceutical compositions containing same” (Korea Research Institute of Chemical Technology, priority 2007, dated 2012).

Target: T1, MCH R1 (melanine-concentrating hormone receptor-1) (Homo sapiens, UniProt Q99705)
T1 construct: purchased Euroscreen, Gosselies, Belgium
Assay: Inhibitory effects on MCH R1 binding (Eu-MCH time-resolved fluorescence binding assay)
Details: concentration inhibiting the binding of MCH (Eu-MCH, 2 nM) to MCH R1 by 50% in vitro; TRF readout; test range 1 nM to 10 μM; read-out: IC50
Experimental: First, MCH R1 (melanine-concentrating hormone receptor-1; Euroscreen, Gosselies, Belgium), 1 μM Europium-labeled melanine-concentrating hormone (Eu-MCH, PerkinElmer, Turku, Finland) and 1 mM melanine-concentrating hormone (MCH, #070-47, Phoenix, Belmont Calif., USA) were kept at 4° C. for ready use. 1 μM Eu-MCH and 1 mM MCH were diluted with an experimental solution (25 mM HEPES pH 7.4, 5 mM MgCl2, 1 mM CaCl2 and 0.5% (w/w) BSA) to 8 nM (final reaction concentration: 2 nM) and 2 μM (final reaction concentration: 0.5 μM), respectively. The compounds prepared in the Examples (“Test compounds”) were dissolved in the experimental solution in concentration of 4 nM to 40 μM (final reaction concentration: 1 nM to 10 μM). MCH R1 (200 assays/vial) was homogeneously dispersed in the experimental solution.
Then, 100 μl/well of the following reaction mixture was added to the wells of a microplate (Multiwell 96 well filter plates PN5020, Pall Co., Ann Arbor, Mich., USA) equipped with a filter paper, with an 8-channel pipette (multi 8-channel, Eppendorf, Hamburg, Germany). Specifically, to the wells of a non-specific binding control group, 25 μl of Eu-MCH, 50 μl of MCH R1 and 25 μl of MCH were added. Further, 25 μl of the experimental solution supplemented with 10% (w/w) of DMSO, 25 μl of Eu-MCH and 50 μl of MCH R1 were added to the wells of a total binding control group, while 25 μl of the test compounds, 25 μl Eu-MCH and 50 μl of MCH R1 were added to the wells of an experimental group. Subsequently, the microplate was shaken gently for 15 seconds and kept at room temperature for 90 minutes to allow the reaction to take place. Then, the plate was washed with a microplate washer (EMBLA, Molecular Devices) by washing three times with 300 μl of a washing solution (25 mM HEPES pH 7.4, 5 mM MgCl2, 1 mM CaCl2) to remove the residual unreacted Eu-MCH. Moisture was removed from the bottom of the wells and 150 μl of dissociation solution (DELFIA Enhancement solution, PerkinElmer, Turku, Finland) was added to each well, followed by keeping the plate at room temperature for 2 to 4 hours. Subsequently, time-resolved fluorescence (TRF) values were measured with a multilabel counter (Victor2, PerkinElmer, Turku, Finland) (emission wave length: 615 nm, excitation wave length: 340 nm). The inhibition rate based on the time-resolved fluorescence data was calculated using the following Equation (I). Inhibition rate of time-resolved fluorescence (%)=[(Average TRF value of the total binding group−Time-resolved fluorescence value of the test compound)/(Average TRF value of the total binding group−Average TRF value of the non-specific binding group)]×100 (I)

T1 sequence (Q99705 whole entry, species assumed): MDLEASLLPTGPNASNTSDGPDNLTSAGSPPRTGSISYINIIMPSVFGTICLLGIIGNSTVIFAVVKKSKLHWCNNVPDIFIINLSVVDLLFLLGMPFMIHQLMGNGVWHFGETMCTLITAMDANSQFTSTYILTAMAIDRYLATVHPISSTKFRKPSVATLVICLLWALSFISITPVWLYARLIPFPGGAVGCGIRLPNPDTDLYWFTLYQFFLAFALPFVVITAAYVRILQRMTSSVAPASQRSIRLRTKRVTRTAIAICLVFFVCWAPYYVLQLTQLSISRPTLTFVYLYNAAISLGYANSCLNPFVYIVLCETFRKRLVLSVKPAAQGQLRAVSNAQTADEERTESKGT

Row | Compound | IC50 [nM]
1 | CC(=O)Nc1cccc(C2CCN(CCCn3c(-c4ccc([N+](=O)[O-])cc4Cl)nc4ccccc43)CC2)c1 [Example 57, 2-(2-chloro-4-nitrophenyl)-1-{3-[4-(3-acetylaminophenyl)piperidin-1-yl]propyl}-1H-benzimidazole] | 37
2 | COc1ccc(-c2nc3ccccc3n2CCCN2CCC(c3cccc(NC(C)=O)c3)CC2)c(OC)c1 [Example 58, 2-(2,4-dimethoxyphenyl)-1-{3-[4-(3-acetylaminophenyl)piperidin-1-yl]propyl}-1H-benzimidazole] | 22
3 | CC(=O)Nc1cccc(C2CCN(CCCn3c(-c4ccc(Cl)cc4F)nc4cc(C)c(C)cc43)CC2)c1 [Example 59, 2-(4-chloro-2-fluorophenyl)-1-{3-[4-(3-acetylaminophenyl)piperidin-1-yl]propyl}-5,6-dimethyl-1H-benzimidazole] | 239
4 | CC(=O)Nc1cccc(C2CCN(CCCn3c(-c4ccc(Cl)cc4)nc4cc(C(N)=O)ccc43)CC2)c1 [Example 60, 2-(4-chlorophenyl)-1-{3-[4-(3-acetylaminophenyl)piperidin-1-yl]propyl}-5-carbamoyl-1H-benzimidazole] | 8
5 | CC(=O)Nc1cccc(C2CCN(CCCn3c(-c4ccc(Cl)cc4)nc4ccc(C(N)=O)cc43)CC2)c1 [Example 61, 2-(4-chlorophenyl)-1-{3-[4-(3-acetylaminophenyl)piperidin-1-yl]propyl}-6-carbamoyl-1H-benzimidazole] | 199
6 | CC(=O)Nc1cccc(C2CCN(CCCn3c(-c4cccc(C(N)=O)c4)nc4ccccc43)CC2)c1 [Example 62, 2-(3-carbamoylphenyl)-1-{3-[4-(3-acetylaminophenyl)piperidin-1-yl]propyl}-1H-benzimidazole] | 11
7 | CC(=O)Nc1cccc(C2CCN(CCCn3c(-c4ccccc4O)nc4ccccc43)CC2)c1 [Example 63, 2-(2-hydroxyphenyl)-1-{3-[4-(3-acetylaminophenyl)piperidin-1-yl]propyl}-1H-benzimidazole] | 94
8 | CC(C)C(=O)Nc1cccc(C2CCN(CCCn3c(-c4ccc(Cl)cc4)nc4ccccc43)CC2)c1 [Example 64, 2-(4-chlorophenyl)-1-{3-[4-(3-isobutyrylaminophenyl)piperidin-1-yl]propyl}-1H-benzimidazole] | 5
9 | O=C(Nc1cccc(C2CCN(CCCn3c(-c4ccc(Cl)cc4)nc4ccccc43)CC2)c1)c1ccccc1 [Example 65, 2-(4-chlorophenyl)-1-{3-[4-(3-benzoylaminophenyl)piperidin-1-yl]propyl}-1H-benzimidazole] | 19
10 | O=C(Nc1cccc(C2CCN(CCCn3c(-c4ccc(Cl)cc4)nc4ccccc43)CC2)c1)c1cccc(Cl)c1 [Example 66, 2-(4-chlorophenyl)-1-{3-[4-(3-(3-chlorobenzoylamino)phenyl)piperidin-1-yl]propyl}-1H-benzimidazole] | 213
11 | Cc1ccc(C(=O)Nc2cccc(C3CCN(CCCn4c(-c5ccc(Cl)cc5)nc5ccccc54)CC3)c2)cc1 [Example 67, 2-(4-chlorophenyl)-1-{3-[4-(3-(4-methylbenzoylamino)phenyl)piperidin-1-yl]propyl}-1H-benzimidazole] | > 10000
12 | CC(=O)Nc1cccc(C2CCN(CCCn3c(-c4ccccc4)nc4cc(Br)c(C)nc43)CC2)c1 [Example 68, 6-bromo-5-methyl-2-phenyl-3-{3-[4-(3-acetylaminophenyl)piperidin-1-yl]propyl}-3H-imidazo[4,5-b]pyridine] | 110
13 | CC(=O)Nc1cccc(C2CCN(CCCn3c(-c4ccccc4)nc4ccc(C)nc43)CC2)c1 [Example 69, 5-methyl-2-phenyl-3-{3-[4-(3-acetylaminophenyl)piperidin-1-yl]propyl}-3H-imidazo[4,5-b]pyridine] | 22
14 | CC(=O)Nc1cccc(C2CCN(CCCn3c(-c4ccc5c(c4)OCO5)nc4ccccc43)CC2)c1 [Example 70, 2-(benzo[1,3]dioxol-5-yl)-1-{3-[4-(3-acetylaminophenyl)piperidin-1-yl]propyl}-1H-benzimidazole] | 12
